{"source": "patent US8133294B2", "about": "“Buffered amino alcohol solutions of N-(n-butyl)thiophosphoric triamide (NBPT) and urea fertilizers using such solutions as urease inhibitors” (Whitehurst Associates, Inc., priority 2009, dated 2012)", "key": {"[1]": {"test": "Solubility limit of NBPT in buffered amino alcohol/carboxylic acid mixture", "format": "physicochemical", "details": "12% NBPT in MEA/acetic acid buffered mixture, pH 9.2 (Example 3)"}, "[2]": {"test": "Sulfide test: NBPT containing buffered mixture added to copper (II) containing ARBORITE Binder 75, colour change", "format": "physicochemical", "protocol": "As another example of the instability of this formulation, the buffered NBPT containing mixture was added to ARBORITRE® Binder 75 which is an ethanolamine borate containing copper (II) ions at about 0.75%.\n[…]; The NBPT containing buffered mixture was then added to ARBORITE® Binder 75."}, "[3]": {"details": "background description; cited from earlier work"}, "[4]": {"test": "Stability of NBPT in the buffered mixture on standing (yellowing, hydrogen sulfide odor as signs of decomposition)", "format": "physicochemical"}}, "note": "Entries after “also recorded” stand apart in the source; their conditions may differ."}
{"smiles": "CCCCNP(N)(N)=S", "note": "[NBPT, N-(n-butyl)-thiophosphoric triamide]", "values": [{"measurement": "Crystallization of the NBPT solution when chilled", "setting": "[1]", "value": "slight crystallization when chilled"}, {"measurement": "Colour change on addition to ARBORITE Binder 75 (sulfides of copper (II))", "setting": "[2]; 20% NBPT in TEA/acetic acid buffered mixture, pH 7.6 (Example 6)", "value": "lost its characteristic blue color and appeared green"}, {"measurement": "Colour change on addition to ARBORITE Binder 75 (sulfides of copper (II))", "setting": "[2]; 25% NBPT in MIPA/acetic acid buffered mixture, pH 9.0 (Example 13)", "value": "No reaction characteristic of the formation of sulfide salts of copper (II) was observed"}, {"measurement": "Colour change on addition to ARBORITE Binder 75 (sulfides of copper (II))", "setting": "[2]; NBPT in MEA/acetic acid buffered mixture, pH 7.0 (Example 1)", "value": "immediately turned brown"}, {"measurement": "Hydrolytic and thermal stability", "setting": "[3]", "value": "undergoes hydrolysis and is thermally unstable"}, {"measurement": "Decomposition of NBPT in the buffered mixture over time", "setting": "[4]; 12% NBPT in MEA/acetic acid buffered mixture, pH 9.2 (Example 3)", "value": "no signs of yellowing were observed"}, {"measurement": "Decomposition of NBPT in the buffered mixture over time", "setting": "[4]; MEA/acetic acid buffered mixture, pH 7.0 (Examples 1 and 2)", "value": "turned yellow over time and emitted an odor of hydrogen sulfide; also recorded: caused hydrolysis of the NBPT and released sulfides"}, {"measurement": "Decomposition of NBPT in the buffered mixture over time", "setting": "[4]; TEA/acetic acid buffered mixture, pH 7.6 (Example 6)", "value": "displayed a tendency to yellow over time"}]}
